The values below come from patent publication US20260265302A1, “PEPTIDE WITH ACTIVITY OF PROMOTING HAIR GROWTH OR INHIBITING HAIR LOSS AND USE THEREOF” (CAREGEN CO., LTD., priority 2023, published 2026).

“Also recorded” adds a separate entry of the source.

Test [1] deals with human hair follicle dermal papilla cells. As to the kind of experiment: Hair follicle cell proliferation (SRB staining, absorbance 560 nm). In kind it is cell-based. The settings on record: HHFDPC; for proliferation effect on hair follicle cells (in words): peptides at different concentrations (FIG. 1, FIG. 5). As for the experimental part:
To confirm the effect of a peptide consisting of the amino acid sequence of SEQ ID NO: 1 on promoting the proliferation of hair follicle cells. Specifically, human hair follicle dermal papilla cells were seeded in a 96-well plate at a density of 4×10^3 cells/well and cultured for 24 hours. After replacing with serum-free mesenchymal stem cell medium, the cells were cultured for 24 hours. The above peptide was treated at concentrations of 10 μM, 50 μM, or 100 μM, respectively, and incubated at 37° C. for 72 hours. As a positive control group, 1 μM of Minoxidil, a hair loss treatment drug, was treated. After completion of culturing, the culture supernatant was removed and the cells were fixed using ethanol. After washing with PBS, staining was performed by treating with SRB solution. After washing with 1% acetic acid, cells were observed under a microscope and destained by treating with 20 mM tris solution. Cell viability was measured by measuring absorbance at a wavelength of 560 nm using a spectrophotometer (SpectraMax iD3, Molecular Devices (USA, CA)).
The proliferation effects of a novel peptide consisting of the amino acid sequence of SEQ ID NO: 1 and a peptide consisting of the amino acid sequence of SEQ ID NO: 10 disclosed in KR10-1285259 (Table 3) on hair follicle cell proliferation were compared. The experiment was conducted in the same manner as described in Example 2, and the cell proliferation effect was measured after treating HHFDPC with peptides at different concentrations.

The subject of a further test is β-catenin. As to the kind of experiment: Nuclear β-catenin western blot (promotion of proliferation mechanism of hair follicle cells). The format is cell-based, human. Conditions: HHFDPC; for translocation of β-catenin from the cytoplasm to the nucleus (in words): peptides at various concentrations (FIG. 6). As for the experimental part: To confirm the effect of a peptide consisting of the amino acid sequence of SEQ ID NO: 1 on promoting the proliferation mechanism of hair follicle cells. Specifically, human hair follicle dermal papilla cells were seeded in a 6-well plate at a density of 4×10^5 cells/well and cultured for 24 hours. After replacing with serum-free mesenchymal stem cell medium, the cells were cultured for 24 hours. A peptide was treated at concentrations of 10 μM, 50 μM, or 100 μM, respectively, and incubated at 37° C. for 24 hours. As a positive control group, 10 ng/ml of recombinant human Wnt-3a protein was treated. After washing with PBS, nucleoproteins were isolated using a nucleoprotein extraction kit (Thermo scientific, USA) and quantified with BCA to prepare equal amounts of protein samples. The proteins separated by electrophoresis using a 10% SDS-PAGE gel were transferred to a PVDF membrane. Blocking was performed at room temperature for 30 minutes using 5% skim milk. β-catenin (cell signaling, USA) and HDAC1 (santa cruz, USA) antibodies were diluted 1:1000 in 3% BSA and reacted with the membrane at 4° C. for 16 hours. The membrane was washed three times with 0.1% PBS-T (0.1% Tween-20 in PBS) for 15 minutes each. The secondary antibody was diluted 1:2000 in 5% skim milk and reacted at room temperature for 1 hour. The membrane was then washed three times with 0.1% PBS-T (0.1% Tween-20 in PBS) for 15 minutes each. After treatment with ECL solution (GE Healthcare, USA), the membrane was detected.
The proliferation-promoting effects of a novel peptide consisting of the amino acid sequence of SEQ ID NO: 1 and a peptide consisting of the amino acid sequence of SEQ ID NO: 10 on hair follicle cells were compared. The experiment was conducted in the same manner as described in Example 3, in which HHFDPC was treated with peptides at various concentrations and the translocation of β-catenin from the cytoplasm to the nucleus was measured.
A general note: Immunoblotting shows a protein as a band on a membrane.

The test system of another test is Lef-1. As to the kind of experiment: RT-PCR expression of Lef-1 in hair follicle dermal papilla cells. In kind it is cell-based, human. Conditions: HHFDPC, peptide 10, 50 or 100 μM, 24 hours, maximum effect (FIG. 3). Here is the method:
(§1) To confirm the effect of a peptide consisting of the amino acid sequence of SEQ ID NO: 1 on promoting hair follicle cell activity. Human hair follicle dermal papilla cells were seeded in 6-well plates at a density of 4×10^5 cells/well and cultured for 24 hours. After replacing with serum-free mesenchymal stem cell medium, the cells were cultured for 24 hours. A peptide was treated at concentrations of 10 μM, 50 μM, or 100 μM, respectively, and incubated at 37° C. for 24 hours. As a positive control group, 10 ng/mL of recombinant human Wnt-3a protein was treated. After washing with PBS, RNA was isolated by treating with 300 μL of easy blue (intron, Korea). After RNA quantification, cDNA synthesis was performed using a cDNA synthesis kit (enzynomics, Korea). Electrophoresis was performed on a 1.5% agarose gel and band detection was performed using a Bio-Rad gel image system.

The next test concerns Cyclin D1. The experiment in a line: RT-PCR expression of Cyclin D1 in hair follicle dermal papilla cells. Conditions: HHFDPC, peptide 10, 50 or 100 μM, 24 hours, maximum effect (FIG. 3). In kind it is cell-based, human. Here is the method:
as §1

The test system of the next test is c-Myc. As to the kind of experiment: RT-PCR expression of c-Myc in hair follicle dermal papilla cells. In kind it is cell-based, human. The settings on record: HHFDPC, peptide 10, 50 or 100 μM, 24 hours, maximum effect (FIG. 3). As for the experimental part: as §1
The next test relates to DKK-1. The experiment in a line: DHT-induced DKK-1 expression western blot in hair follicle dermal papilla cells. The format is cell-based, human. The settings on record: HHFDPC; for inhibiting effect on DKK-1 expression (in words): DHT-induced, peptides at different concentrations (FIG. 4, FIG. 7). Here is the method: To confirm whether a peptide consisting of the amino acid sequence of SEQ ID NO: 1 inhibits the expression of DKK-1, a hair loss-related factor, in hair follicle cells. Human hair follicle dermal papilla cells were seeded in 6-well plates at a density of 4×10^5 cells/well and cultured for 24 hours. After replacing with serum-free mesenchymal stem cell medium, the cells were cultured for 24 hours. The peptides were treated at concentrations of 10 μM, 50 μM, or 100 μM, respectively, and simultaneously treated with DHT, an inducer of hair loss protein DKK-1, at a concentration of 100 nM. As a positive control group, 5 μM of finasteride, a drug that inhibits androgens, was treated. DHT is known as a hair loss hormone that increases the expression of DKK-1 (Dickkopf-related protein 1), a hair loss-inducing factor, by activating androgen receptors. After culturing at 37° C. for 24 hours, the cells were washed with PBS, treated with lysis buffer to prepare cell lysates, and equal amounts of protein samples were prepared by BCA quantification. Electrophoresis was performed using a 10% SDS-PAGE gel. Proteins separated by SDS PAGE were transferred to a PVDF membrane. Blocking was performed at room temperature for 30 minutes using 5% skim milk. DKK-1 (cell signaling, USA) antibody was diluted 1:1000 in 3% BSA and reacted with the membrane at 4° C. for 16 hours. The membrane was then washed three times with 0.1% PBS-T (0.1% Tween-20 in PBS) for 15 minutes each. The secondary antibody was diluted 1:2000 in 5% skim milk and reacted at room temperature for 1 hour. The membrane was then washed three times with 0.1% PBS-T (0.1% Tween-20 in PBS) for 15 minutes each. After treatment with ECL solution (GE Healthcare, USA), protein band detection and densitometry were performed using ImageQuant 800 (Amersham, USA).
The effect of inhibiting the expression of hair loss-related factors was compared between the novel peptide consisting of the amino acid sequence of SEQ ID NO: 1 and the peptide consisting of the amino acid sequence of SEQ ID NO: 10. The experiment was conducted in the same manner as described in Example 5, and it was confirmed whether the expression of DKK-1, a hair loss-related factor, was inhibited after treating HHFDPC with peptides at different concentrations.

In the case of AERRREKCRC [SEQ ID NO: 1], the “proliferation increase of hair follicle cells” value in test [1] (peptide 10, 50 or 100 μM, 72 hours, maximum effect (FIG. 1)) was “up to 155%”. In addition, in test [1], the “proliferation effect on hair follicle cells (in words)” value is on record as “proliferation was induced in a concentration-dependent manner; also recorded: exhibit a proliferation effect on hair follicle cells in a concentration-dependent manner”. Moreover, in test [1] (same concentration, SEQ ID NO: 1 vs SEQ ID NO: 10 (FIG. 5)), the “hair follicle cell proliferation promotion activity compared with the known peptide” value was “significantly higher hair follicle cell proliferation promotion activity than the known peptide”. For the same sequence, the “nuclear translocation of β-catenin from the cytoplasm to the nucleus, increase” value in the test with β-catenin (peptide 10, 50 or 100 μM, 24 hours, nucleoprotein western blot, maximum effect (FIG. 2)) was “up to 1.35 times”. For the same sequence, the “expression of β-catenin (in words)” value in the test on β-catenin (peptide 10, 50 or 100 μM, 24 hours, western blot (FIG. 2)) is reported as “expression of β-catenin increases”. In the test with β-catenin, the “translocation of β-catenin from the cytoplasm to the nucleus (in words)” value is “promote the translocation of β-catenin from the cytoplasm to the nucleus in a concentration-dependent manner”. In addition, in the test on β-catenin (same concentration, SEQ ID NO: 1 vs SEQ ID NO: 10 (FIG. 6)), the “proliferation mechanism promoting activity compared with the known peptide” value was “significantly higher proliferation mechanism promoting activity than the known peptide”. In addition, the “Lef-1 expression increase compared to the control group” value with Lef-1 is “up to 3 times”. For the same sequence, the “Cyclin D1 expression increase compared to the control group” value with Cyclin D1 is “up to 1.96 times”. In the test on c-Myc, the “c-Myc expression increase compared to the control group” value is on record as “up to 1.62 times”. For the same sequence, in the test with DKK-1, the “inhibiting effect on DKK-1 expression (in words)” value is listed as “exhibit an inhibiting effect on DKK-1 expression in a concentration-dependent manner; also recorded: inhibiting DKK-1 expression induced by DHT”. Moreover, in the test with DKK-1 (high-concentration peptide treatment group, DHT 100 nM, 24 hours, western blot (FIG. 4)), the “DKK-1 expression level reduction compared to the negative control group (DHT treatment group)” value was “about 50%”. In the test with DKK-1 (same concentration, SEQ ID NO: 1 vs SEQ ID NO: 10 (FIG. 7)), the “ability to inhibit the expression of DKK-1 compared with the known peptide” value is reported as “significantly higher ability to inhibit the expression of DKK-1 than the known peptide”.

As for “AERRRELCRC [SEQ ID NO: 10, reference compound]”, the “proliferation effect on hair follicle cells (in words)” value in test [1] is reported as “exhibit a proliferation effect on hair follicle cells in a concentration-dependent manner”. Further, the “translocation of β-catenin from the cytoplasm to the nucleus (in words)” value in the test with β-catenin is reported as “promote the translocation of β-catenin from the cytoplasm to the nucleus in a concentration-dependent manner”. In the test with DKK-1, the “inhibiting effect on DKK-1 expression (in words)” value was “exhibit an inhibiting effect on DKK-1 expression in a concentration-dependent manner”.
